Test results published in PubChem BioAssay (NCI).
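Assay format: 96-well plates, 48-hour exposure. GI50 marks 50% less growth. TGI: total growth inhibition.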

Legend:
Assay in all cases: growth of human tumour cells (NCI), 48 h
SF-539 CNS = system: SF-539 CNS
HOP-62 NSCLC = system: HOP-62 NSCLC
SN12C renal = system: SN12C renal
786-0 renal = system: 786-0 renal
A549 NSCLC = system: A549 NSCLC
NCI-H226 lung = system: NCI-H226 lung
OVCAR-3 ovarian = system: OVCAR-3 ovarian
SNB-75 CNS = system: SNB-75 CNS
NCI-H460 lung = system: NCI-H460 lung
EKVX NSCLC = system: EKVX NSCLC

Compound | GI50 (SF-539 CNS) | TGI (SF-539 CNS) | GI50 (HOP-62 NSCLC) | TGI (HOP-62 NSCLC) | GI50 (SN12C renal) | TGI (SN12C renal) | GI50 (786-0 renal) | TGI (786-0 renal) | GI50 (A549 NSCLC) | TGI (A549 NSCLC) | GI50 (NCI-H226 lung) | TGI (NCI-H226 lung) | GI50 (OVCAR-3 ovarian) | TGI (OVCAR-3 ovarian) | GI50 (SNB-75 CNS) | TGI (SNB-75 CNS) | GI50 (NCI-H460 lung) | TGI (NCI-H460 lung) | TGI (EKVX NSCLC) | GI50 (EKVX NSCLC)
CCn1cnc(C[C@H](NC(=O)[C@H](CCCCNC(=O)Nc2cc(C(F)(F)F)cc(C(F)(F)F)c2)NC(=O)Nc2cc(C(F)(F)F)cc(C(F)(F)F)c2)C(=O)OC)c1 | > 10 µM | > 10 µM | 9.32 µM | > 10 µM | 5.69 µM | > 10 µM | 8.78 µM | > 10 µM | 3.97 µM | > 10 µM | > 10 µM | > 10 µM | 3.32 µM | > 10 µM | 1.37 µM | > 10 µM | 3.43 µM | > 10 µM |  | 
C[C@@H](C1CC[C@H]2[C@@H]3[C@@H]4O[C@@H]4[C@@]4(O)CC=CC(=O)[C@]4(C)[C@H]3C[C@H](O)[C@]12C)[C@H]1C[C@]2(C)O[C@]2(C)C(=O)O1 (stereo partly specified) |  | > 100 µM |  |  |  | > 100 µM |  | > 100 µM |  | > 100 µM |  | > 100 µM |  | > 100 µM |  | > 100 µM |  | > 100 µM | > 100 µM | 
O=C1OC(CC(=O)c2ccc(F)cc2)C(Cl)=C1Cl (stereo unspecified) |  | 35.2 µM |  | 72.5 µM |  | 35.3 µM |  | 34.3 µM |  | > 100 µM |  | 33.8 µM |  | 38.7 µM |  |  |  | 52.2 µM | > 100 µM | 
O=C(NC1CCN(Cc2ccccc2)CC1)c1cc(-c2cccnc2)nc2ccc(Cl)cc12 | 11.9 µM | 24.2 µM | 11.8 µM | 31.5 µM | 5.2 µM | 29.2 µM | 4.63 µM | 17.7 µM | 4.61 µM | 44.8 µM | 9.72 µM | 50.3 µM | 11.3 µM | 28 µM | 2.18 µM | 12.7 µM | 4.24 µM | 21.7 µM |  | 
CCOC(=O)c1oc2c(OC)ccc3c2c1CCC3 |  | > 100 µM |  | > 100 µM |  | > 100 µM |  | > 100 µM |  | > 100 µM |  |  |  | > 100 µM |  | > 100 µM |  | > 100 µM | > 100 µM | 
CCCCCC/C=C/C#CCCCCCCCC(=O)O |  | > 100 µM |  |  |  | > 100 µM |  | > 100 µM |  | > 100 µM |  | > 100 µM |  | > 100 µM |  | > 100 µM |  | > 100 µM | > 100 µM | 
O=C(Nc1cccc(C(F)(F)F)c1)C(=O)C(C(=O)c1ccc(Cl)c(Cl)c1)C1OC(=O)c2ccccc21 (stereo unspecified) |  |  |  | > 100 µM |  | > 100 µM |  | > 100 µM |  | > 100 µM |  | 62.5 µM |  | > 100 µM |  | 92.3 µM |  | > 100 µM | > 100 µM | 
C/C(=N\Nc1ccccc1)c1sc(-c2nc(C)c(/C(C)=N/Nc3ccccc3)s2)nc1C |  | > 37.7 µM |  |  |  | > 100 µM |  | > 83.1 µM |  | > 35.8 µM |  | > 95.7 µM |  | 59.9 µM |  | > 77.1 µM |  | > 100 µM | > 100 µM | 
Cc1cc(S(=O)(=O)/N=C(\N)Nc2cccc(O)c2)c(SCc2ccccc2)cc1Cl | 18 µM | 38.8 µM | 15.1 µM | 31.7 µM | 17.6 µM | 38.2 µM | 16.9 µM | 33.5 µM | 14.8 µM | > 100 µM | 24 µM | 62.3 µM | 10.3 µM | 26.2 µM | 10.8 µM | 26.5 µM |  |  | 37.2 µM | 12.7 µM
Nc1nc(N)c2c(n1)NC(c1sc(Cl)nc1Cl)CC(c1ccccc1)=N2 (stereo unspecified) | 2.69 µM | 9.97 µM | 3.72 µM | 18 µM | 5.83 µM | 18.5 µM | 5.05 µM | 19.2 µM | 5.02 µM | 19.4 µM | 13.7 µM | 35.1 µM | 3.6 µM | 13.7 µM | 1.63 µM | 7.59 µM | 4.05 µM | 14.6 µM |  | 
COc1cc(/C=C/C(=O)c2cccc3ccccc23)cc(OC)c1OC |  |  |  | 18.8 µM |  | 12.5 µM |  | 14.8 µM |  | 37 µM |  | 30.3 µM |  | 25.7 µM |  | 23.3 µM |  | 14.2 µM | 28.7 µM | 
CCOC(=O)/C(=C/CC/C(C)=C/CC/C(C)=C/CCc1ccoc1)CC(=O)N1CCCCC1 | 7.9 µM | 20.9 µM | 4.4 µM | 19.8 µM | 3.79 µM | 14.8 µM | 5.29 µM | 18.8 µM | 1.92 µM | 4.14 µM | 4.48 µM | 19.4 µM | 3.44 µM | 12.3 µM | 4.1 µM | 35.3 µM | 1.82 µM | 3.7 µM |  | 
Cc1ccccc1NC(=O)CC1C(=O)Nc2ccccc2S1=O (stereo unspecified) |  | 94.3 µM |  |  |  | > 100 µM |  | > 100 µM |  | > 100 µM |  | > 100 µM |  | > 100 µM |  | 65.9 µM |  | > 100 µM | > 100 µM | 
CN1CCN(CCCOc2cccc3nc(Nc4cc(Cl)cc(Cl)c4)ccc23)CC1 | 1.57 µM | 3.03 µM | 1.37 µM | 2.81 µM | 3.74 µM | 13.9 µM | 1.49 µM | 2.94 µM | 1.98 µM | 3.55 µM | 1.95 µM | 4.04 µM | 1.68 µM | 3.18 µM |  |  | 1.84 µM | 3.43 µM | 3.27 µM | 1.73 µM
Clc1ccc(-c2cc(-c3ccccc3)nc(N3CCN(CCCNc4ccnc5cc(Cl)ccc45)CC3)n2)cc1 | 1.79 µM | 3.25 µM | 1.2 µM | 2.78 µM | 1.42 µM | 2.84 µM | 1.47 µM | 2.84 µM | 1.77 µM | 3.75 µM |  |  | 1.55 µM | 2.98 µM | 1.49 µM | 2.85 µM | 1.56 µM | 3.1 µM |  | 
CC1CC(C[N+](=O)[O-])CC2(C1)OCCO2 (stereo unspecified) |  | > 100 µM |  | > 100 µM |  | > 100 µM |  | > 100 µM |  | > 100 µM |  | > 100 µM |  | > 100 µM |  | > 100 µM |  | > 100 µM |  | 
O=C1/C(=C/c2cccnc2)SC(=S)N1Cc1ccco1 |  | 6.12 µM |  | 27.1 µM |  | 45 µM |  | > 40.8 µM |  | > 100 µM |  | 92 µM |  | 10.4 µM |  |  |  | 25.1 µM | > 100 µM | 
N#CCc1c(F)c(F)c(F)c(F)c1F |  | > 100 µM |  | > 100 µM |  | > 100 µM |  | > 100 µM |  | > 100 µM |  | > 100 µM |  |  |  |  |  |  | > 100 µM | 
